Test results from patent publication US8293211B2, “CB1 receptor antagonists and uses thereof” (MAKScientific, LLC, priority 2007, dated 2012).

Columns and labels:
adult male ferrets = experiment: Emesis studies: vomiting induced by the emetic M6G; type: in vivo, ferret; conditions: for mean number of vomiting episodes±SEM: 60 min observation
Protocol: Ferrets were lightly anaesthetized with halothane for each injection. Data were videotaped and analyzed by an observer blinded to the conditions of each treatment group. During 60 min of observation the number of vomiting (emetic) episodes were counted, and activity or sleeping time was noted. […] Each ferret acted as its own control, conditions were randomized via a counter balance design and separated by at least 14 days.

CB1 receptor = CB1 receptor (Rattus norvegicus, UniProt P20272); experiment: [3H]CP55,940 competitive binding assay, CB1 (rat brain membranes); parameters: membrane preparations from rat brain; from tissue; host or cells: rat brain membranes
CB1 receptor, sequence (P20272 whole entry): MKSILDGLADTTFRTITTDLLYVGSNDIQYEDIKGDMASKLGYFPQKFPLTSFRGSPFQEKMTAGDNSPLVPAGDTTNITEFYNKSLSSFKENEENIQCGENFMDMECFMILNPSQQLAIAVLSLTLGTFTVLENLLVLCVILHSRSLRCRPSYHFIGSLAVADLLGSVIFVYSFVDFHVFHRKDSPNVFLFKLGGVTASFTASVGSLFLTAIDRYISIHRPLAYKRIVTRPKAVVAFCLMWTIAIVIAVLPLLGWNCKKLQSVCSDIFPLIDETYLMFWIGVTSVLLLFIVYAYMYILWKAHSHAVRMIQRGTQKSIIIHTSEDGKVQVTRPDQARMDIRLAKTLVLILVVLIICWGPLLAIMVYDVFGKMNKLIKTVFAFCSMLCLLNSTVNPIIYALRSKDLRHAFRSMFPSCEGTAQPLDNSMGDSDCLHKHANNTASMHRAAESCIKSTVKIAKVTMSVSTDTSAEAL
Protocol: Compounds were tested for their CB1 and CB2 receptor using membrane preparations from rat brain or HEK293 cells expressing hCB2 receptor, respectively, and [^3H]CP55,940 as previously described 1, 36-38. Stock solutions of the compounds (10 mM in DMSO) were diluted in TME buffer (50 mM Tris-HCL, 3 mM MgCl2, 100 mM NaCl, 0.2 mM EDTA, pH 7.4) with 0.1% BSA and transferred to 96 well plates containing [^3H]CP55,940 (specific activity 128 Ci/mmol; NIDA) at a final concentration of 0.76 nM. Non-specific binding was assessed in the presence of 100 nM CP55,940. The binding reaction was initiated with the addition of the respective membrane suspension (˜50 μg membrane protein) followed by incubation at 30° C. with gentle agitation in a shaking water bath for 60 minutes. […] The filter plates were washed with ice-cold wash buffer (50 mM Tris-base, 5 mM MgCl2 with 0.5% BSA) and bound radioactivity was determined using a Packard TopCount Scintillation Counter. The results were analyzed using nonlinear regression to determine the actual IC50 and the Ki values of the ligand (Prizm by GraphPad Software, Inc.). All data were in duplicate with IC50 and Ki values determined from at least two independent experiments.
The affinity of a compound for CB1 vs. CB2 is determined by the ratio of the inhibitory constants (Ki), as determined by the competitive binding assay.

hCB1 = biological target: T1, hCB1 (Homo sapiens, UniProt P21554); experiment: Forskolin-stimulated cAMP assay; type: cell-based
T1 construct: expressed in transfected cells; host or cells: HEK293
T1 sequence (P21554 whole entry): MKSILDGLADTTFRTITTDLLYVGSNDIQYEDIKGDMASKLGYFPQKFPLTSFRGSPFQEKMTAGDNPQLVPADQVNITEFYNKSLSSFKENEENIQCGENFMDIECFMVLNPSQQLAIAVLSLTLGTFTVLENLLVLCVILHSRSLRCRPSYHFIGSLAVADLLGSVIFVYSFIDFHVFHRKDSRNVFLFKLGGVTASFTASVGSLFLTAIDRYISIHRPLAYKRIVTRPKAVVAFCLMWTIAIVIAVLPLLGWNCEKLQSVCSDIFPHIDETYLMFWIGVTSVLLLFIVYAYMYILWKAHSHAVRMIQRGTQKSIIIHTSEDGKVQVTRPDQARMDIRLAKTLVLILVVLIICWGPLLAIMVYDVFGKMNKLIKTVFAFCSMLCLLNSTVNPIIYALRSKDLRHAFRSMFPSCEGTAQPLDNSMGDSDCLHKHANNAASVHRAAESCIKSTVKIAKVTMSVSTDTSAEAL
Protocol: Intracellular cAMP levels were measured with a competitive protein-binding assay using intact HEK293 cells expressing hCB1 or hCB2 and a cAMP immunoassay kit from Sigma (St. Louis, Mo.). In short, forskolin stimulated cells were incubated with various concentrations of compound, cAMP anti-body and cAMP conjugate for 2 hours at ambient temperature. The reaction was stopped by emptying the wells followed by the addition of p-NPP substrate and incubation for 1 hour. […] The results were expressed as percent inhibition of forskolin-stimulated cAMP accumulation and EC50 curves were generated with the use of GraphPad Prism software.

[1] = tested on: Male Sprague-Dawley (SD) rats; experiment: Food intake studies (experiments A, B, C), food intake and body weight; type: in vivo, rat
Protocol: All experimental protocols were approved by internal guidelines. Different concentrations of drugs were administered I.P. in a 1 ml kg-1 (milliliters per kilogram) volume, except M6G, which was given s.c. (subcutaneously) in a 0.1 ml kg-1 volume.
Food and water were presented in inverted glass bottles that attached to the outside of the cage. Food was available for 18 h each day starting at 16:00 h (12 h light-dark cycle; lights off 16:00 h).
Intake measurements were taken at 1.5 h, 3 h, 5 h, and 18 h after food became available.
Rats were habituated to testing and handling procedures as before. […] Food intake and body weight were monitored daily.
On the day of the experiment each rat received only a single injection, 30 min later food was made available as described in experiment 1. Food intake was measured 0.5, 1.5, 3, 5, and 18 h after administration. Food intake and body weight were monitored daily for five days after the experiment to assess the sustained effect of a single administration of each compound.

Rats = experiment: Food intake studies using different diets; type: in vivo, rat; conditions: 2.0, 4.0, 8.0 mg/kg IP 30 min prior; high-fat, high-carbohydrate, lab chow
From the text: Animals were assigned to three different diet conditions (n=10/group). One group was assigned to a high-fat diet (HF; Diet # D12451, Research Diets, New Brunswick, N.J., 20% protein, 45% fat, 35% carbohydrate). A second group was given a high-carbohydrate diet (HC; Diet # D12450B, Research Diets, New Brunswick, N.J., 20% protein, 10% fat, 70% carbohydrate). The remaining group was fed a standard chow diet (LC, 5P00 Prolab RMH 3000, PMI Nutrition International, St. Louis, Mo.; 26% protein, 14% fat, 60% carbohydrate). Food blocks from each type of diet were nutritionally complete and similar in appearance and weight. Rats were given free access to lab chow in their home cages until the beginning of a five day habituation period. On the first day of habituation, rats were assigned to their respective dietary groups and moved into suspended wire mesh test cages containing their assigned food type. After spending 30 min in the test cage, they were returned to their home cages. After this initial habituation period, rats were given free access to lab chow in their home cages every Thursday afternoon through Monday afternoon. Each Tuesday and Wednesday, rats spent 30 min in the test cages with their assigned diets. On Thursdays, the injected animals were placed in the test cages with a pre-weighed amount of assigned food. A piece of cardboard was placed underneath the chamber to catch spillage. […]

[2] = experiment B, 5 mg kg-1 daily, day 4
[3] = experiment B, 5 mg kg-1 daily, day 5

Ki (CB1 receptor; against [3H]CP55,940, rat brain membranes): 0.89 ± 0.44 nM
selectivity for CB1 versus CB2 receptors (CB1 receptor; ratio of Ki values): ~100 fold
change of forskolin-stimulated cAMP accumulation (hCB1; CB1 transfected HEK cells, up to concentrations of 630 nM): did not change
effect on forskolin stimulated cAMP production (hCB1; HEK293 cells transfected with human CB1 receptors): no effect
Structure (SMILES): Cc1c(C(=O)NN2CCCCC2)nn(-c2ccc(Cl)cc2Cl)c1-c1ccc(C#CCCC#N)cc1 [Compound 3]
mean number of vomiting episodes±SEM (adult male ferrets; 5 mg kg-1 I.P. 15 min before M6G): 2.0±0.6
mean number of vomiting episodes±SEM (adult male ferrets; 10 mg kg-1 I.P. 15 min before M6G): 2.0±0.4
mean number of vomiting episodes±SEM (adult male ferrets; 20 mg kg-1 I.P. 15 min before M6G): 2.7±0.6
effect on number of vomiting episodes induced by M6G compared with vehicle (adult male ferrets; Compound 3 5, 10, 20 mg kg-1, Compound 1 5 mg kg-1): did not significantly increase
acute effect on food intake compared with vehicle ([1]; experiment A, 5 mg kg-1 I.P. single dose): did not significantly reduced food intake
food intake and weight gain, differences to vehicle treated rats ([1]; experiment B, 1 mg kg-1 daily): non significant
food intake, difference compared with vehicle treated rats ([1]; experiment B, 5 mg kg-1 daily, day 3): -23.2 g
food intake, difference compared with vehicle treated rats [1, 2]: -20.4 g
weight gain, difference to vehicle treated rats [1, 2]: -15.6 g
food intake, difference compared with vehicle treated rats [1, 3]: -19.2 g
weight gain, difference to vehicle treated rats [1, 3]: -21.8 g
weight gain, difference to vehicle treated rats ([1]; experiment B, 5 mg kg-1 daily, day 6): -23.7 g
food intake compared with vehicle ([1]; experiment B, 1 and 5 mg kg-1 daily, first day of treatment): No significant reductions
differences in food intake ([1]; experiment B, 1 and 5 mg kg-1 daily, second day of treatment): not statistically significant
food intake, difference between the 1 mg kg-1 and 5 mg kg-1 doses ([1]; experiment B, daily treatment, day 3): -17.6 g
weight gain, difference 5 mg kg-1 versus 1 mg kg-1 ([1]; experiment B, daily treatment, day 4): -12.0 g
food intake, difference compared with vehicle treated rats ([1]; experiment C, 10 mg kg-1 single dose, 3 h): -20.0 g
food intake, difference compared with vehicle treated rats ([1]; experiment C, 10 mg kg-1 single dose, 5 h): -22.8 g
food intake, difference compared with vehicle treated rats ([1]; experiment C, 10 mg kg-1 single dose, 18 h): -42.0 g
food intake, difference compared with vehicle treated rats ([1]; experiment C, 10 mg kg-1 single dose, […]): -14.3 g
food intake, difference compared with vehicle treated rats ([1]; experiment C, 20 mg kg-1 single dose, 3 h): -21.3 g
food intake, difference compared with vehicle treated rats ([1]; experiment C, 20 mg kg-1 single dose, 5 h): -30.1 g
food intake, difference compared with vehicle treated rats ([1]; experiment C, 20 mg kg-1 single dose, 18 h): -60.6 g
food intake, difference compared with vehicle treated rats ([1]; experiment C, 20 mg kg-1 single dose, […]): -15.0 g
weight gain for several days after the experiment ([1]; experiment C, single administration (Compound 1 5 mg kg-1; Compound 3 10, 20 mg kg-1)): significantly reduced
daily food intake after treatment relative to vehicle treated rats ([1]; experiment C, single administration (Compound 1 5 mg kg-1; Compound 3 10, 20 mg kg-1), days after): reduced
weight gain, difference between 10 mg kg-1 and 20 mg kg-1 treatment groups ([1]; experiment C, single dose, day 5): -12.3 g
food intake over vehicle across all diet groups (Rats): significantly suppressed food intake
